# According to patent EP0045334A1, “Propranolol antigen conjugates and antibodies and method of using them” (SYVA COMPANY, priority 1980, dated 1982):
# Key:
# [1] = tested on: Antibodies prepared from BSA conjugate according to Example 6; test: Cross-reactivity in homogeneous enzyme immunoassay for propranolol (G6PDH conjugate, change in OD at 340nm); format: binding; conditions: 100ng/ml propranolol standard
# Method: (§1) Antibodies were prepared employing the conjugates of Examples 4 and 6 in accordance with known procedures. The bleeds were harvested and the antibodies isolated according to known techniques.
# (§2) The following is the assay procedure employed for the determination of the presence of propranolol.
# (§3) In carrying out the propranolol assay, a number of reagent solutions are prepared:
# (§4) • 0.055M Tris-HCl • 0.05% Sodium Azide • 0.005% Thimerosal • pH8.1 at room temperature • Assay Buffer • Basic Buffer • 0.5% NaCl • 0.01% Triton X-100 • pH8.1 at room temperature • Substrate/Antibody Diluent • Basic Buffer • 1.0% RSA (Rabbit Serum Albumin) • 0.04M NAD • 0.066M glucose-6-phosphate • pH5.0 at room temperature • Enzyme Diluent • Basic Buffer • 1.0% RSA • 0.9% NaCl • pH 8.1 at room temperature • Antibody-Substrate Reagent A
# (§5) Antibody Substrate is used to dilute gamma globulin isolated as above so that ca 70% of the G6PDH conjugate activity is inhibited in the assay solution.
# (§6) The enzyme conjugate (e.g., Example 7) is diluted with enzyme diluent to attain the desired maximum rate. This is measured by aspirating into a spectrometer and taking the change in readings at 340nm over a 30 second period after a 15 second delay.
# (§7) In carrying out the assay, the assay solution is prepared by combining the following: 50µl of the sample to be assayed, 50 µl of Reagent A, and 50 µl of Reagent B with 750 µl of assay buffer. The mixture is aspirated into a spectrometer and the A OD read at 340nm. The.concentration of propranolol in the sample is read from a standard curve prepared by using standardized solutions and taking readings.
# (§8) The drugs listed below were used in preliminary testing for cross-reactivity with propranolol using the assay procedure described above: 4-hydroxypropranolol (4POH), N-desisopropyl-propranolol (DIPP), propranolol glycol (PG), naphthoxylactic acid (NLA), and naphthoxyacetic acid (NAA). All are metabolites of propranolol itself. […] The remainder show cross reactivity as below.
# [2] = tested on: Antibodies prepared from BgG conjugate according to Example 4; test: as above; format: binding; conditions: Lot 2153; 100ng/ml propranolol standard
# Method: as §1, §2, §3, §4, §5, §6, §7, §8
"CROSS-REACTIVITY, expressed as the concentration necessary to elevate the signal of a 100ng/ml standard solution by 30% ([1]; Lot 2215)","CROSS-REACTIVITY, expressed as the concentration necessary to elevate the signal of a 100ng/ml standard solution by 30% ([1]; Lot 2216)","CROSS-REACTIVITY, expressed as the concentration necessary to elevate the signal of a 100ng/ml standard solution by 30% [2]",Structure (SMILES)
22 ng/mL,200 ng/mL,8 ng/mL,"NCC(O)COc1cccc2ccccc12 (stereo not drawn) [DIPP, N-desisopropyl-propranolol]"
>1000 ng/mL,>1000 ng/mL,190 ng/mL,"CC(C)NCC(O)COc1ccc(O)c2ccccc12 (stereo not drawn) [Example 4POH, 4-hydroxypropranolol]"
230 ng/mL,400 ng/mL,84 ng/mL,"OCC(O)COc1cccc2ccccc12 (stereo not drawn) [PG, propranolol glycol]"
